Results from ChEMBL document CHEMBL5647692, “The novel dual PI3K/mTOR inhibitor NVP-BGT226 displays cytotoxic activity in both normoxic and hypoxic hepatocarcinoma cells” (Oncotarget, 2015).
Activity calls are given as the source filed them. The rule behind the calls is not given here.

Key:
Mahlavu [1] = test: Induction of autophagy in human Mahlavu cells assessed as increased expression of LC3 A/B II at 0.5 uM incubated for 24 hrs in presence of chloroquine under hypoxia condition by Western blot analysis; assay type: functional, cell-based
[2] = Inhibition of PI3K/Akt/mTOR signaling pathway in human Mahlavu cells assessed as reduction in S6 phosphorylation at 1 to 10 nM incubated for 1 hr under normoxia condition by Western blotting analysis; assay type: cell-based; conditions: dose 1-10 nM
SNU-475 [3] = test: Induction of autophagy in human SNU-475 cells assessed as increase expression of LC3 A/B II at 0.5 uM incubated for 24 hrs in presence of chloroquine under hypoxia condition by Western blot analysis; assay type: functional, cell-based
SNU-475 [4] = test: Induction of autophagy in human SNU-475 cells assessed as increase in LC3I to LC3II conversion at 0.5 uM incubated for 24 hrs under hypoxia condition by Western blot analysis; assay type: functional, cell-based
Mahlavu [5] = test: Cytotoxicity against human Mahlavu cells assessed as reduction in cell viability at 0.5 uM incubated for 24 hrs in presence of chloroquine under hypoxia condition by MTT assay; assay type: functional, cell-based
SNU-475 [6] = test: Cytotoxicity against human SNU-475 cells assessed as reduction in cell viability at 0.5 uM incubated for 24 hrs in presence of chloroquine under hypoxia condition by MTT assay; assay type: functional, cell-based
Mahlavu [7] = test: Induction of apoptosis in human Mahlavu cells assessed as necrotic cells at 0.66 uM incubated for 24 hrs by Annexin-V/7-AAD staining based muse cell analyzer method (reference value: 0.67 %); assay type: functional
[8] = Inhibition of PI3K/Akt/mTOR signaling pathway in human SNU-475 cells assessed as reduction in phosphorylation of mTORC1 substrate S6 incubated for 1 hr under normoxia condition by Western blotting analysis; assay type: cell-based; conditions: dose 0.25-1 µM
[9] = Inhibition of PI3K/Akt/mTOR signaling pathway in human SNU-475 cells assessed as reduction in phosphorylation of Akt at 1 to 10 nM incubated for 1 hr under hypoxia condition by Western blotting analysis; assay type: cell-based; conditions: dose 1-10 nM
SNU-475 [10] = test: Induction of autophagy in human SNU-475 cells assessed as reduction in SQSTM1/p62 level by Western blot analysis; assay type: functional, cell-based; conditions: dose 0.1-0.5 µM

COc1ccc(-c2ccc3ncc4c(c3c2)n(-c2ccc(N3CCNCC3)c(C(F)(F)F)c2)c(=O)n4C)cn1 [BGT-226 FREE BASE]
Activity (Mahlavu [1]): Active
inhibition [2]: Active
Activity (SNU-475 [3]): Active
Activity (SNU-475 [4]): Dose-Dependent Effect
Activity (Mahlavu [5]): Active
Activity (SNU-475 [6]): Active
Activity (Mahlavu [7]): 0%
inhibition [8]: Dose-Dependent Effect
inhibition [9]: Active
Activity (SNU-475 [10]): Dose-Dependent Effect
